One molecule from ChEMBL document CHEMBL5316291 (J Med Chem, 2023) can be followed below.

Series [1] has as its target Poly [ADP-ribose] polymerase 2 (Homo sapiens, UniProt Q9UGN5). As to the kind of experiment: Inhibition of human recombinant N-terminal GST-tagged PARP2 (2 to 583 residues) expressed in baculovirus infected Sf9 cells expression system incubated for 1 hr by ELISA assay.
In series [2] the target is T1, Poly [ADP-ribose] polymerase tankyrase-2 (Homo sapiens, UniProt Q9H2K2).
T1 sequence (Q9H2K2 whole entry): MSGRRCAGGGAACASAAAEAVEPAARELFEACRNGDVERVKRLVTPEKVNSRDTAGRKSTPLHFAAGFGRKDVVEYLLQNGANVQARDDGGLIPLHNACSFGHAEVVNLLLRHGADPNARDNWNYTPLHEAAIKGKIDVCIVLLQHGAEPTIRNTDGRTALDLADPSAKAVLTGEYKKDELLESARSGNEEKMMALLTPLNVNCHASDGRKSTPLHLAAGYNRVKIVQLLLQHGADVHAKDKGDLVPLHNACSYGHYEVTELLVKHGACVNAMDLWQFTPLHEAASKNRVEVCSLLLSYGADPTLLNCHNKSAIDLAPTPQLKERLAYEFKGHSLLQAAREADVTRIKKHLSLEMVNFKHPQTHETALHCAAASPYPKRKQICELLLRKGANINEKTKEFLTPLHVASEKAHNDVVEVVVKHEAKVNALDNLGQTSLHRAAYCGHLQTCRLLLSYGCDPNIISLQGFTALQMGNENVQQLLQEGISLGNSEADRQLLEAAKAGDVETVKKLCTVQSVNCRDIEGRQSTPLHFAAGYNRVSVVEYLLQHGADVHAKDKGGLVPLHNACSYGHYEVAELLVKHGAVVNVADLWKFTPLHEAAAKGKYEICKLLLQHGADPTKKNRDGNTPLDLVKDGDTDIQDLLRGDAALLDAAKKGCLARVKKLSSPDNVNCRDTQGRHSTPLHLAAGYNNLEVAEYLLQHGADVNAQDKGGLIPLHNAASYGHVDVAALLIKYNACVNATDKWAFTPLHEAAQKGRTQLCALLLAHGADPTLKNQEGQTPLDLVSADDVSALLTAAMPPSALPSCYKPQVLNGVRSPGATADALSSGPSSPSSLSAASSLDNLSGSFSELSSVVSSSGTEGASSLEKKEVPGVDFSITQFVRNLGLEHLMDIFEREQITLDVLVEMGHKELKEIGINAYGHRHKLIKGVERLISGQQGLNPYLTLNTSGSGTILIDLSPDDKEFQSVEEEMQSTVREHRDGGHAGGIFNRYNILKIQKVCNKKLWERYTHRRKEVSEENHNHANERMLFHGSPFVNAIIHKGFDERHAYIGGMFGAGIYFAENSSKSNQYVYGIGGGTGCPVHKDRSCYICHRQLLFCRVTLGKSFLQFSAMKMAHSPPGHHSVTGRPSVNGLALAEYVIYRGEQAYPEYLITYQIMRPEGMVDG
As to the kind of experiment: Inhibition of human recombinant N-terminal GST-tagged PARP5b (667 to 1166 end residues) expressed in baculovirus infected Sf9 cells expression system incubated for 1 hr by ELISA assay.

Series [3] is described as follows: Apparent volume of distribution in ICR mouse at 1 mg/kg, iv measured upto 24 hrs by LC-MS/MS analysis. The series is classed as ADME, organism-based. The note with it: in vivo, read-out: Vz.
Series [4] concerns the target T2, Protein mono-ADP-ribosyltransferase TIPARP (Mus musculus) (UniProt Q8C1B2).
T2 sequence (whole entry): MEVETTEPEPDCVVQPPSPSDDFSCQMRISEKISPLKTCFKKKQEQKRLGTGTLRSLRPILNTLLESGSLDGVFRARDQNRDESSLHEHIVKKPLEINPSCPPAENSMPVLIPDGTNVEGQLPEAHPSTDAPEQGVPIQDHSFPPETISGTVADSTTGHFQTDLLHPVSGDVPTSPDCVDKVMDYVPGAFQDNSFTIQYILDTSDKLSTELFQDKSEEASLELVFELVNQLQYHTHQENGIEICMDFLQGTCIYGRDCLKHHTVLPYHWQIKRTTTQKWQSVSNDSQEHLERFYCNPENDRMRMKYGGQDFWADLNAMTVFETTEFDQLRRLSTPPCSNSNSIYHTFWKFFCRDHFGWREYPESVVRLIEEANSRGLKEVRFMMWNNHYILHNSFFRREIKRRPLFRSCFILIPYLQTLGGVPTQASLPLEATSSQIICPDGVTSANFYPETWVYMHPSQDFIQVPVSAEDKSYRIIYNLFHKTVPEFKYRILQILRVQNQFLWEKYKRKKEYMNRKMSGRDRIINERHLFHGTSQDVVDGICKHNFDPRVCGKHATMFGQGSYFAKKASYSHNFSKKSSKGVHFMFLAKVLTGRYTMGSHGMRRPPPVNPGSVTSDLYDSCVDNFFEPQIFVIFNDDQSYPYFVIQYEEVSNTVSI
As to the kind of experiment: Inhibition of PARP7 in mouse CT26 cells assessed as increase in IFN-beta levels at 49 to 4000 nmol/L measured after 48 hrs by RT-qPCR analysis. The settings on record: dose lower […], dose upper 4000.0 nmol/L. The class given is cell-based. In general terms: Real-time PCR tracks product formation cycle by cycle.

Series [5] can be described thus: Toxicity in BALB/c mouse implanted with mouse CT26 cells assessed as change in body weight at 1000 mg/kg, po measured upto 7 days. The series is classed as organism-based. The note with it: in vivo, 168 h, time < 7 day.
The subject of series [6] is CT26. The series can be described thus: Antitumor activity against mouse CT26 cells xenografted in BALB/c mouse assessed as tumor growth inhibition at 25 mg/kg, po bid measured for 14 days. The class given is functional. The note with it: CT26, 336 h, time 14 day, read-out: TGI.
Series [7] has as its system CT26. As to the kind of experiment: Antitumor activity against mouse CT26 cells implanted in po dosed BALB/c mouse assessed as increase in IFN-beta levels measured after 14 days by RT-qPCR analysis. The class given is functional, organism-based. The settings on record: dose 25-100 mg/kg, time 14.0 day.
The subject of series [8] is CT26. As to the kind of experiment: Antitumor activity against mouse CT26 cells implanted in immunodeficient BALB/c mouse at 100 mg/kg, po bid measured for 10 days. The class given is functional, organism-based. The settings on record: time 10.0 day.

Calls of active or inactive are those of the source. No cut-off for these calls is given here.

Poly [ADP-ribose] polymerase 2, sequence (Q9UGN5 whole entry, the tested form may be a part): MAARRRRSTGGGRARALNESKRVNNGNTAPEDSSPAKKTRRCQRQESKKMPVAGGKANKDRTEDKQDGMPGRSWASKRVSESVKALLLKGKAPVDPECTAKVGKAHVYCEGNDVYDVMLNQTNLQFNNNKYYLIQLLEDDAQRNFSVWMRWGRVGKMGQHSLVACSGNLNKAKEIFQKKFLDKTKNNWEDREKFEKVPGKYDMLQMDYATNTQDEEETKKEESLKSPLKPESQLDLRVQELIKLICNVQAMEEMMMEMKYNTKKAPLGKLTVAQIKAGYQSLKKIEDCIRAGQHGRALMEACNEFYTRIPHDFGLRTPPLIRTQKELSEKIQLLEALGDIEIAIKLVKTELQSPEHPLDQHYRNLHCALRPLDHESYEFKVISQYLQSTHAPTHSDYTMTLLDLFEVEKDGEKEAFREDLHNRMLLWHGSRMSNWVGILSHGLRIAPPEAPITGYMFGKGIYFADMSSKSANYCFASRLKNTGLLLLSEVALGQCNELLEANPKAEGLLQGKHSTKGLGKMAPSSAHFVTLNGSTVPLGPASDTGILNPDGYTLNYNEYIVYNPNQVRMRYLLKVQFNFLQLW

In the case of `C[C@@H](CN1CC(C(=O)N2CCN(c3ncc(C(F)(F)F)cn3)CC2)C1)Nc1cn[nH]c(=O)c1C(F)(F)F`, the results for the IC50 in series [1] and in series [2] were 546 nM and 227 nM, respectively. The Vd in series [3] turned out to be 3.66 L/kg. Moreover, in series [4], the inhibition entry is “Active”. Further, the Activity entry is “Non-Toxic” in series [5] and “Dose-Dependent Effect” in series [7]. Also, in series [6], the inhibition in vivo at 25 mg/kg is 39%. The outcome in series [8] was inactive.

As a reminder, the IC50 is the concentration that inhibits the measured activity by half.
